The supplement of paper PMC10307832

Tests used:
Assay in all cases: relative viability (nuclei count vs DMSO), 5 days (fraction); higher = more cells survive
NCI-H1437 = tested on: NCI-H1437
In short: (§1)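 One day after seeding in 1536-well plates, lung cancer cell lines were dosed by pin tool. Dosing was either single-drug or a fixed anchor-drug dose plus five library-drug doses (not always all listed) in √10 steps. After 5 days, nuclei were stained in one fix-and-stain step and counted on 4× images, and relative viability is the nuclei count of treated wells over that of vehicle wells, given as the median of duplicate plates.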

NCI-H1650 = tested on: NCI-H1650
In short: as §1

NCI-H1666 = tested on: NCI-H1666
In short: as §1

NCI-H2009 = tested on: NCI-H2009
In short: as §1

NCI-H2170 = tested on: NCI-H2170
In short: as §1

NCI-H3122 = tested on: NCI-H3122
In short: as §1

NCI-H441 = tested on: NCI-H441
In short: as §1

NCI-H661 = tested on: NCI-H661
In short: as §1

NCI-H727 = tested on: NCI-H727
In short: as §1

NCI-H838 = tested on: NCI-H838
In short: as §1

PC-14 = tested on: PC-14
In short: as §1

SW 900 = tested on: SW 900
In short: as §1

With NC(=O)Nc1cc(-c2cccc(F)c2)sc1C(=O)N[C@H]1CCCNC1 [AZD7762] + COc1cccc2cc(-c3nc([C@H]4CC[C@H](C(=O)O)CC4)n4ncnc(N)c34)[nH]c12 [OSI-027] (partner 0.5 µM) as the compound, how does the relative viability (NCI-H1437; first compound 0.1 µM) read?
The relative viability was 0.974.

And the relative viability (NCI-H1437; first compound 0.3162 µM)?
Its relative viability is 0.87.

What about the relative viability (NCI-H1437; first compound 1 µM) of the same compound?
The relative viability was 0.695.

And the relative viability (NCI-H1650; first compound 0.01 µM)?
Its relative viability is 0.688.

And the relative viability (NCI-H1650; first compound 0.03162 µM)?
The relative viability was 0.638.

And the relative viability (NCI-H1650; first compound 0.1 µM)?
The relative viability was 0.708.

What about the relative viability (NCI-H1650; first compound 0.3162 µM) of the same compound?
Its relative viability is 0.425.

And the relative viability (NCI-H1650; first compound 1 µM)?
Its relative viability is 0.206.

What about the relative viability (NCI-H1666; first compound 0.01 µM) of the same compound?
The relative viability was 0.981.

What about the relative viability (NCI-H1666; first compound 0.03162 µM) of the same compound?
Its relative viability is 0.921.

What about the relative viability (NCI-H1666; first compound 0.1 µM) of the same compound?
Its relative viability is 1.03.

And the relative viability (NCI-H1666; first compound 0.3162 µM)?
The relative viability was 0.858.

And the relative viability (NCI-H1666; first compound 1 µM)?
The relative viability was 0.771.

And the relative viability (NCI-H2009; first compound 0.01 µM)?
Its relative viability is 0.664.

What about the relative viability (NCI-H2009; first compound 0.03162 µM) of the same compound?
Its relative viability is 0.736.

And the relative viability (NCI-H2009; first compound 0.1 µM)?
Its relative viability is 0.73.

And the relative viability (NCI-H2009; first compound 0.3162 µM)?
The relative viability was 0.601.

What about the relative viability (NCI-H2009; first compound 1 µM) of the same compound?
Its relative viability is 0.459.

What about the relative viability (NCI-H2170; first compound 0.01 µM) of the same compound?
Its relative viability is 0.637.

What about the relative viability (NCI-H2170; first compound 0.03162 µM) of the same compound?
Its relative viability is 0.734.

And the relative viability (NCI-H2170; first compound 0.1 µM)?
Its relative viability is 0.807.

And the relative viability (NCI-H2170; first compound 0.3162 µM)?
Its relative viability is 0.8.

What about the relative viability (NCI-H2170; first compound 1 µM) of the same compound?
The relative viability was 0.707.

What about the relative viability (NCI-H3122; first compound 0.01 µM) of the same compound?
Its relative viability is 1.03.

And the relative viability (NCI-H3122; first compound 0.03162 µM)?
The relative viability was 1.1.

What about the relative viability (NCI-H3122; first compound 0.1 µM) of the same compound?
Its relative viability is 0.995.

What about the relative viability (NCI-H3122; first compound 0.3162 µM) of the same compound?
The relative viability was 0.473.

And the relative viability (NCI-H3122; first compound 1 µM)?
Its relative viability is 0.259.

What about the relative viability (NCI-H441; first compound 0.01 µM) of the same compound?
The relative viability was 0.765.

And the relative viability (NCI-H441; first compound 0.03162 µM)?
Its relative viability is 0.819.

What about the relative viability (NCI-H441; first compound 0.1 µM) of the same compound?
The relative viability was 0.944.

What about the relative viability (NCI-H441; first compound 0.3162 µM) of the same compound?
The relative viability was 0.799.

What about the relative viability (NCI-H441; first compound 1 µM) of the same compound?
Its relative viability is 0.59.

What about the relative viability (NCI-H661; first compound 0.01 µM) of the same compound?
Its relative viability is 0.731.

What about the relative viability (NCI-H661; first compound 0.03162 µM) of the same compound?
Its relative viability is 0.717.

And the relative viability (NCI-H661; first compound 0.1 µM)?
Its relative viability is 0.616.

And the relative viability (NCI-H661; first compound 0.3162 µM)?
The relative viability was 0.559.

And the relative viability (NCI-H661; first compound 1 µM)?
Its relative viability is 0.319.

What about the relative viability (NCI-H727; first compound 0.01 µM) of the same compound?
Its relative viability is 0.649.

What about the relative viability (NCI-H727; first compound 0.03162 µM) of the same compound?
Its relative viability is 0.791.

And the relative viability (NCI-H727; first compound 0.1 µM)?
Its relative viability is 0.425.

And the relative viability (NCI-H727; first compound 0.3162 µM)?
Its relative viability is 0.52.

And the relative viability (NCI-H727; first compound 1 µM)?
Its relative viability is 0.358.

What about the relative viability (NCI-H838; first compound 0.01 µM) of the same compound?
The relative viability was 0.429.

What about the relative viability (NCI-H838; first compound 0.03162 µM) of the same compound?
The relative viability was 0.374.

And the relative viability (NCI-H838; first compound 0.1 µM)?
The relative viability was 0.415.

And the relative viability (NCI-H838; first compound 0.3162 µM)?
The relative viability was 0.413.

What about the relative viability (NCI-H838; first compound 1 µM) of the same compound?
The relative viability was 0.297.

What about the relative viability (PC-14; first compound 0.01 µM) of the same compound?
The relative viability was 0.847.

What about the relative viability (PC-14; first compound 0.03162 µM) of the same compound?
Its relative viability is 0.816.

And the relative viability (PC-14; first compound 0.1 µM)?
Its relative viability is 0.734.

And the relative viability (PC-14; first compound 0.3162 µM)?
The relative viability was 0.287.

And the relative viability (PC-14; first compound 1 µM)?
The relative viability was 0.0799.

What about the relative viability (SW 900; first compound 0.01 µM) of the same compound?
The relative viability was 0.609.

And the relative viability (SW 900; first compound 0.03162 µM)?
The relative viability was 0.623.

And the relative viability (SW 900; first compound 0.1 µM)?
Its relative viability is 0.539.

And the relative viability (SW 900; first compound 0.3162 µM)?
Its relative viability is 0.501.

And the relative viability (SW 900; first compound 1 µM)?
Its relative viability is 0.263.
